Test results reported in ChEMBL document CHEMBL4619754, “Discovery of novel, potent, and orally bioavailable pyrido[2,3-d][1]benzazepin-6-one antagonists for parathyroid hormone receptor 1” (Bioorg Med Chem, 2020).
In brackets after ≈: the same amount, converted by molar mass.

How the values were obtained:
[1] = Metabolic stability in rat liver microsomes assessed as parent compound remaining at 1 uM in presence of NADPH generating system measured after 20 mins by LC-MS/MS analysis; type: ADME, Microsome; settings: read-out: Stability
[2] = Drug degradation in HCL/CH2Cl2 by TLC analysis; type: physicochemical; settings: read-out: Drug degradation
[3] = Solubility of the compound in JP1 fluid at pH 1.2; type: physicochemical
[4] = Solubility of the compound in JP2 buffer at pH 6.8; type: physicochemical
[5] = molecular target: T1, Parathyroid hormone/parathyroid hormone-related peptide receptor (Homo sapiens, UniProt Q03431); test: Antagonist activity at PTHR1 (unknown origin) expressed in CHOK1 cells co-expressing Gs/Gq assessed as reduction in human PTH (1 to 34 residues)-induced cAMP level incubated for 30 mins; type: functional, cell-based, CHO-K1
T1 sequence (Q03431 whole entry): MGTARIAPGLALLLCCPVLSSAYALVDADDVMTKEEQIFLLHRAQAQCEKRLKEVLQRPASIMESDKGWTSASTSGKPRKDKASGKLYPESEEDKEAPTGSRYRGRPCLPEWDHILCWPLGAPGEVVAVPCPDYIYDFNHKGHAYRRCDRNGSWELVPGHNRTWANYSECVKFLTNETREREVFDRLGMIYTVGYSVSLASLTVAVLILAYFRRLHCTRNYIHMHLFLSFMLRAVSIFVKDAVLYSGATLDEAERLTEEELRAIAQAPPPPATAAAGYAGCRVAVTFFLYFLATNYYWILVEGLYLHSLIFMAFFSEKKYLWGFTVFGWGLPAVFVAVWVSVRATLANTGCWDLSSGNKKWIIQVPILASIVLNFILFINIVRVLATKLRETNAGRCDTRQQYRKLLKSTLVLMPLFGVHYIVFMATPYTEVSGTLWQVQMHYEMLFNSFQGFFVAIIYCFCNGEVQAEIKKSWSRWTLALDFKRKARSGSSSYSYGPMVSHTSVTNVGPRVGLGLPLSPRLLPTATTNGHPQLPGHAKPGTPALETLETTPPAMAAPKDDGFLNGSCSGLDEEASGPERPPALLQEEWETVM

CYP1A2 = molecular target: T2, CYP1A2 (Homo sapiens, UniProt P05177); test: Inhibition of CYP1A2 (unknown origin) at 10 uM relative to control; type: ADME
T2 sequence (P05177 whole entry): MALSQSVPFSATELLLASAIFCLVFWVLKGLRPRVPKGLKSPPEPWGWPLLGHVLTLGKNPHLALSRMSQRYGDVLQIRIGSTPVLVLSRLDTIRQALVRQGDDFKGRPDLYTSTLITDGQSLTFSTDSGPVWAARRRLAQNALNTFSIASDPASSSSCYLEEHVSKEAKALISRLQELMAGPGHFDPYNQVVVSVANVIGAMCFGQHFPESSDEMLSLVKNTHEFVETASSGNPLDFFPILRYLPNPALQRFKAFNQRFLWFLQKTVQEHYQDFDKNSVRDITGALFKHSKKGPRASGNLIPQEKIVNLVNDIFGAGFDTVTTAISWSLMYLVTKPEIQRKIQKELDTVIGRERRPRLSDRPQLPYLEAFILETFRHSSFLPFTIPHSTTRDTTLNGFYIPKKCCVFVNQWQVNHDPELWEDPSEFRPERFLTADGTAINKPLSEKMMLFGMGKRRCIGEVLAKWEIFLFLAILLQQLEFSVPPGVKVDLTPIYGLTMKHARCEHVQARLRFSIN

CYP2C8 = molecular target: T3, CYP2C8 (Homo sapiens, UniProt P10632); test: Inhibition of CYP2C8 (unknown origin) at 10 uM relative to control; type: ADME
T3 sequence (P10632 whole entry): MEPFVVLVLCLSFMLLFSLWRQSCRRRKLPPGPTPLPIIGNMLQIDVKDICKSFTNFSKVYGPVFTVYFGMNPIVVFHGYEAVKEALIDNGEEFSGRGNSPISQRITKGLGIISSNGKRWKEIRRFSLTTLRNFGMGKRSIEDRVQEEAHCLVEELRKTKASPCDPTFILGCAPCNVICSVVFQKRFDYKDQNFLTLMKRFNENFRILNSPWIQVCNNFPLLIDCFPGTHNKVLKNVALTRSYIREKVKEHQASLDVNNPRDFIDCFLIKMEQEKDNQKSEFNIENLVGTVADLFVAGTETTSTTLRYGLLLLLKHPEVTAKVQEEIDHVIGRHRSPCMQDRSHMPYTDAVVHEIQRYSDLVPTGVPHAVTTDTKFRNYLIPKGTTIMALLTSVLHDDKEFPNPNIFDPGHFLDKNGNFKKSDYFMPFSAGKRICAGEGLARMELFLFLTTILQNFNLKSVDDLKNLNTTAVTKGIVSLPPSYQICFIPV

CYP2C9 = CYP2C9 (Homo sapiens, UniProt P11712); test: Inhibition of CYP2C9 (unknown origin) at 10 uM relative to control; type: ADME
Chain of CYP2C9 (P11712 whole entry): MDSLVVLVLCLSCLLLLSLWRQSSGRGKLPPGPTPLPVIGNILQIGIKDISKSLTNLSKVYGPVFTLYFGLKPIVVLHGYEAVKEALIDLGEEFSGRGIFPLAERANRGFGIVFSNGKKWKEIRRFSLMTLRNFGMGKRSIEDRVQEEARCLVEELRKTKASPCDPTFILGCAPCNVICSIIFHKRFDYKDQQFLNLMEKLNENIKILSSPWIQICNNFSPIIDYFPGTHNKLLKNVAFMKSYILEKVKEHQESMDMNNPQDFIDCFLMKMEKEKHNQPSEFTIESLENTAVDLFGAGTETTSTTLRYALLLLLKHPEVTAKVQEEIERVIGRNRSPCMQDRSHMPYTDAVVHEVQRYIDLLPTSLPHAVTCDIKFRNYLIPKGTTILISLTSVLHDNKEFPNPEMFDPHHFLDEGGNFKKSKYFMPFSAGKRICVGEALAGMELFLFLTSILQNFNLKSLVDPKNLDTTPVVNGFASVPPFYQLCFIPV

CYP2C19 = CYP2C19 (Homo sapiens, UniProt P33261); test: Inhibition of CYP2C19 (unknown origin) at 10 uM relative to control; type: ADME
Chain of CYP2C19 (P33261 whole entry): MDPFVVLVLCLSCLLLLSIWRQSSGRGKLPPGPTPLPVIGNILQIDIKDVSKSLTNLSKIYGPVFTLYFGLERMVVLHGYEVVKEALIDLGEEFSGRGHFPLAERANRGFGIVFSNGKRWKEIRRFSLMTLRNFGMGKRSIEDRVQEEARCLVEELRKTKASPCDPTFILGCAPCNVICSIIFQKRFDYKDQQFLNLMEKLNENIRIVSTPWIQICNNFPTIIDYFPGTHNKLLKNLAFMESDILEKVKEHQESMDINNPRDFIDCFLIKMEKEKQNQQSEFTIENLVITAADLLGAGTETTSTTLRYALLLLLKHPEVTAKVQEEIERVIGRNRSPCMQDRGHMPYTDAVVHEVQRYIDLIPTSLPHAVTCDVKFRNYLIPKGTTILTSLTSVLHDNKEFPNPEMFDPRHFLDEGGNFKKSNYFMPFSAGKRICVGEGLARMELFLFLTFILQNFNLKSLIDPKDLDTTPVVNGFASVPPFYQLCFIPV

CYP2D6 = CYP2D6 (Homo sapiens, UniProt P10635); test: Inhibition of CYP2D6 (unknown origin) at 10 uM relative to control; type: ADME
Chain of CYP2D6 (P10635 whole entry): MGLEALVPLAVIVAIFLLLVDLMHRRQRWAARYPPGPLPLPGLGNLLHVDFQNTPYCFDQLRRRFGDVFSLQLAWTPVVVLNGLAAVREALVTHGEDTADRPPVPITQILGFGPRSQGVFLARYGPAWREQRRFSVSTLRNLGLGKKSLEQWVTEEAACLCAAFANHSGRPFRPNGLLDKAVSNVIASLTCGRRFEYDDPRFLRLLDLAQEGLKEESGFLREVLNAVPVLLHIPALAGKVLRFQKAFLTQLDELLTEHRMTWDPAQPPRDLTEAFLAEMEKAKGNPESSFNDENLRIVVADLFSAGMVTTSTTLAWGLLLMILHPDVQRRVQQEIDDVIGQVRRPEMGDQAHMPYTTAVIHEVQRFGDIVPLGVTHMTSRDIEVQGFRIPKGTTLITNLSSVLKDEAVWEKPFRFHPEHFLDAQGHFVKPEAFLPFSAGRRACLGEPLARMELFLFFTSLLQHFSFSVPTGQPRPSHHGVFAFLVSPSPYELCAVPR

CYP3A4 = CYP3A4 (Homo sapiens, UniProt P08684); test: Inhibition of CYP3A4 (unknown origin) at 10 uM relative to control; type: ADME
Chain of CYP3A4 (P08684 whole entry): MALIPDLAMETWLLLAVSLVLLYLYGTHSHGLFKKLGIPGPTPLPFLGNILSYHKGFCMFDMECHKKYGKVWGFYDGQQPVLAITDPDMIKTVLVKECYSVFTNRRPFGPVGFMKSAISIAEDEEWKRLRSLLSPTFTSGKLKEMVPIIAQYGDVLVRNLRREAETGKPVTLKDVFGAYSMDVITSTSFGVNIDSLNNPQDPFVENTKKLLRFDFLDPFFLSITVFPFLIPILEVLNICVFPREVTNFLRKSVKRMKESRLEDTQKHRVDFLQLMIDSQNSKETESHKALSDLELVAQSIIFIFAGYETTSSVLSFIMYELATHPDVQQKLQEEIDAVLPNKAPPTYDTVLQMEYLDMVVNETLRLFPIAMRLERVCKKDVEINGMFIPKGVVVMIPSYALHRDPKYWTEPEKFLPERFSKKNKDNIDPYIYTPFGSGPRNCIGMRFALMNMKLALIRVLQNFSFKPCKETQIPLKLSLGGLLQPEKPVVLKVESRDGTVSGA

[6] = 1-Octanol/PBS buffer distribution coefficient, log D of the compound at pH 7.4; type: physicochemical
[7] = Plasma clearance in Sprague-Dawley rat at 1 mg/kg, iv by LC-MS/MS analysis; type: ADME, organism-based
[8] = Volume of distribution at steady state in Sprague-Dawley rat at 1 mg/kg, iv by LC-MS/MS analysis; type: ADME, organism-based; settings: in vivo, read-out: Vdss
[9] = Elimination half life in Sprague-Dawley rat at 5 mg/kg, po by LC-MS/MS analysis; type: ADME, organism-based; settings: in vivo, read-out: BBB (converted)
[10] = AUClast in Sprague-Dawley rat at 5 mg/kg, po by LC-MS/MS analysis; type: ADME, organism-based; design: dose 5 mg/kg, time 0 - last, route oral; settings: in vivo
[11] = Oral bioavailability in Sprague-Dawley rat at 10 mg/kg by LC-MS/MS analysis; type: ADME, organism-based; settings: in vivo

remaining at 20 min, 1 µM [1] [%] | solubility [3] [µg/mL] | solubility [4] [µg/mL] | IC50 [5] [µM] | SMILES | also measured
28 |  |  |  | CC1(C)N=C(C2CCCCC2)c2ccc(C#N)cc2N(c2ccc(NCCNC3CCOCC3)cc2)C1=O | degraded [2]: 100%
97 |  |  | 8.8 | CC1(C)C=C(C2CCCCC2)c2ccc(C#N)cc2N(c2ccc(NCCNC3CCOCC3)cc2)C1=O | 
58 |  |  | 0.97 | CC1(C)C=C(C2CCCCC2)c2ccc(Cl)cc2N(c2ccc(NCCNC3CCOCC3)cc2)C1=O | 
21 | 83 (≈ 169 µM) | 9.1 (≈ 18.6 µM) | 3.2 | CC1(C)C(=O)N(c2ccc(NCCNC3CCOCC3)cc2)c2cc(Cl)ccc2-c2ccccc21 | 

Second part, the molecule before the results:

SMILES | remaining at 20 min, 1 µM [1] [%] | solubility [3] [µg/mL] | solubility [4] [µg/mL] | IC50 [5] [µM] | also measured
CC1(C)C(=O)N(c2ccc(NCCNC3CCOCC3)cc2)c2cc(F)ccc2-c2cc(Cl)cnc21 | 42 | 960 (≈ 1890 µM) | 380 (≈ 747 µM) |  | 
CC1(C)C(=O)N(c2ccc(NCCNC3CCOCC3)cc2)c2cc(Cl)ccc2-c2cc(F)cnc21 | 19 | 920 (≈ 1810 µM) | 470 (≈ 923 µM) |  | 
CC1(C)C(=O)N(c2ccc(NCCNC3CCOCC3)cc2)c2cc(Cl)ccc2-c2cc(Cl)ccc21 | 75 | 36 (≈ 68.6 µM) | 4.7 (≈ 8.96 µM) |  | 
CC(C)N1N=C(C2CCCCC2)c2ccc(Cl)cc2N(c2ccc(NCCNC3CCOCC3)cn2)C1=O |  |  |  | 4.37 | 
COc1ccc2c(c1)N(c1ccc(NCCNC3CCOCC3)cc1)C(=O)C(C)(C)c1ncc(Cl)cc1-2 | 59 | 250 (≈ 480 µM) | 3.8 (≈ 7.29 µM) |  | 
CC1(C)C(=O)N(c2ccc(NCCNC3CCOCC3)cc2)c2cc(C#N)ccc2-c2cc(Cl)cnc21 | 34 | 990 (≈ 1920 µM) | 720 (≈ 1400 µM) |  | 
Cc1ccc2c(c1)N(c1ccc(NCCNC3CCOCC3)cc1)C(=O)C(C)(C)c1ncc(Cl)cc1-2 | 52 | 870 (≈ 1720 µM) | 24 (≈ 47.5 µM) |  | 
CC1(C)C(=O)N(c2ccc(NCCNC3CCOCC3)cc2)c2cc(Cl)ccc2-c2cc(Cl)cnc21 | 65 | 570 (≈ 1080 µM) | 77 (≈ 147 µM) |  | inhibition at 10 µM (CYP1A2): < 50%; inhibition at 10 µM (CYP2C8): < 50%; inhibition at 10 µM (CYP2C9): < 50%; inhibition at 10 µM (CYP2C19): < 50%; inhibition at 10 µM (CYP2D6): < 50%; inhibition at 10 µM (CYP3A4): < 50%; logD [6]: 3.5; clearance [7]: 39 mL/min/kg; Vd [8]: 29.4 L/kg; half-life [9]: 13.1 h; AUC(0-t) [10]: 2500 ng·h/mL; bioavailability [11]: 61%
Cc1cnc2c(c1)-c1ccc(Cl)cc1N(c1ccc(NCCNC3CCOCC3)cc1)C(=O)C2(C)C | 62 | > 980 | 510 (≈ 1010 µM) |  | 
